Assay results: paper PMC7907646, “Identification of a Novel Pattern Recognition Receptor DM9 Domain Containing Protein 4 as a Marker for Pro-Hemocyte of Pacific Oyster Crassostrea gigas” (Frontiers in Immunology, 2021)
pKd: −log10 of the molar value.

Target: T1, CgDM9CP-4 (rCgDM9CP-4) (Magallana gigas, UniProt A0A8W8N023)
T1 construct: full ORF, 145 residues, two tandem DM9 domains, predicted 16 kDa (~18 kDa on gel); pET-30a (NdeI/XhoI), His tag, E. coli Transetta (DE3), Ni column
Assay: ELISA on mannose-coated plate, one-site fit
Format: binding
Settings: apparent Kd; mannose coated at 20 μg in pH 9.6 buffer; 5 mmol L^-1 CaCl2, 0.1 mg mL^-1 BSA, 37°C; anti-His detection

T1 sequence (A0A8W8N023 entry or part of it): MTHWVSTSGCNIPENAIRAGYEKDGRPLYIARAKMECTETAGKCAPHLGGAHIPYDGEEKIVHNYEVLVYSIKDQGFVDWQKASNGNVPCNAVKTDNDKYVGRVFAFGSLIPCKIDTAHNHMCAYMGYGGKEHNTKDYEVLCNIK

- pKd: 7.05
SMILES: OC[C@H]1OC(O)[C@@H](O)[C@@H](O)[C@@H]1O (stereo partly shown) [Mannose]
